Consider one compound from patent US8592466B2, “Methods for treating conditions caused by higher-than-normal dopaminergic activity in basal ganglia” (Neuropill, Inc., priority 2008, dated 2013).

The data set is described as follows: Phase I cocaine interaction study: heart rate and blood pressure. The note with it: cocaine 20 mg and 40 mg i.v., most P-values<0.05.

As for `COC(=O)[C@H]1[C@@H](OC(=O)c2ccccc2)C[C@@H]2CC[C@H]1N2C` [cocaine, reference compound], the “HR/SBP/DBP after cocaine infusion” value is recorded as “significant elevation”.
